Assay results: patent US11427546B2, “Form of isoquinoline sulfonamide” (D. WESTERN THERAPEUTICS INSTITUTE, INC., priority 2018, dated 2022)
Entries after “also recorded” stand apart in the source; their conditions may differ. Where a name gives a salt, the structure may show the parent alone.

Assays:
Assay type in all cases: physicochemical
[1] = Heat stability comparative test; conditions: 70° C., airtight glass vial
Protocol: Heat Stability Comparative Test
About 20 mg of each of the compound (1) of Reference Example 1 and the crystal of the compound (2) of the present invention obtained in an Example was weighed out in a glass vial and stored in a thermostat chamber kept at 70° C. in an airtight state (NA-100N Incubator from NISSIN) for 14 days. On Day 0, Day 7, and Day 14, compound (1) and the compound (2) of the present invention were examined for appearance and purity (HPLC).

[2] = Water solubility comparative test; conditions: for transparency of aqueous solution by visual observation: about 100 mg in 2 mL purified water (5% aqueous solution), room temperature; for precipitate in aqueous solution: about 100 mg in 2 mL purified water, 1 day later
Protocol: Water Solubility Comparative Test
About 100 mg of each of the compound (1) of Reference Example 1 and the crystal of the compound (2) of the present invention was weighed out in a glass vial, 2 mL of purified water was added, and the mixture was vigorously shaken in an airtight state. After being allowed to stand until the liquid surface fluctuation ceased, the aqueous solution was examined for transparency by visual observation at room temperature.

[3] = Moisture absorption stability comparative test in the ambient atmosphere; conditions: ambient atmosphere 25° C.-28° C./67%-83% RH; for appearance (moisture absorption): Day 7
Protocol: Moisture Absorption Stability Comparative Test in the Ambient Atmosphere
About 100 mg of each of the compound (1) obtained in Reference Example 1 and the compound (2) of the present invention obtained in an Example was weighed out in a plastic container and allowed to stand in the ambient atmosphere (25° C.-28° C./67%-83% RH), while minimizing the influence of wind pressure, foreign matter entry, and the like from above and all directions, for 7 days. On Day 0 and Day 7, samples were weighed and examined for appearance.

[4] = Moisture absorption stability comparative test at 50° C./70% RH
Protocol: Moisture Absorption Stability Comparative Test at 50° C./70% RH
A 100-mg weight of each of the crystals of compounds (3) and (4) obtained in Reference Examples 2 and 3, respectively, and the compound (2) of the present invention obtained in an Example was weighed out in a plastic container and allowed to stand under 50° C./70% RH conditions in a thermo-hygrostat chamber (IH400 from Yamato Scientific Co., Ltd.).

Structure (SMILES)	appearance / property (heat stability) ([1]; Day 7, monohydrochloride)	transparency of aqueous solution by visual observation ([2]; monohydrochloride)	precipitate in aqueous solution [2]	appearance (moisture absorption) [3]	appearance and purity (HPLC) (heat stability) ([1]; Day 14)	transparency of aqueous solution by visual observation [2]	percent increase in weight ([3]; Day 7, about 100 mg solid)	appearance change due to moisture absorption ([4]; after 1 hour of standing)	weight increase ([4]; after 1 hour of standing, 100 mg solid)	change (appearance, weight) after prolonged standing ([4]; after 3 days of standing)
C[C@H](CNC[C@@](C)(O)c1ccccc1)NS(=O)(=O)c1ccc2cnccc2c1.Cl [compound (1), N—[(R)-1-{(S)-2-hydroxy-2-phenylpropylamino}propan-2-yl]isoquinoline-6-sulfonamide monohydrochloride, reference compound]	marked property degradation; also recorded: unstable with an evident change in appearance	translucent; also recorded: translucent and had not dissolved completely	a precipitate was found	evident moisture absorption phenomenon	–	–	–	–	–	–
C[C@H](CNC[C@@](C)(O)c1ccccc1)NS(=O)(=O)c1ccc2cnccc2c1 [compound (2), N—[(R)-1-{(S)-2-hydroxy-2-phenylpropylamino}propan-2-yl]isoquinoline-6-sulfonamide dihydrochloride anhydride]	–	–	no precipitate was found	no weight gain or appearance change	stable, with no change in appearance nor decomposition; also recorded: stable	extremely clear, showing complete dissolution; also recorded: colorless and clear	did not at all exhibit any weight change; also recorded: no weight gain	no appearance change	no appearance change nor weight gain; also recorded: did not at all exhibit any weight change	no change was observed
C[C@H](CNCCc1ccccc1)NS(=O)(=O)c1ccc2cnccc2c1.Cl.Cl [compound (3), (R)—N-{1-(phenetylamino)propan-2-yl}isoquinoline-6-sulfonamide dihydrochloride, reference compound]	–	–	–	–	–	–	–	marked appearance change due to moisture absorption	–	–
C[C@H](CNC[C@H](C)c1ccccc1)NS(=O)(=O)c1ccc2cnccc2c1.Cl.Cl [compound (4), N—[(R)-1-{(R)-2-phenyipropylamino}propan-2-yl]isoquinoline-6-sulfonamide dihydrochloride, reference compound]	–	–	–	–	–	–	–	marked appearance change due to moisture absorption	–	–
